Here are results for six molecules from ChEMBL document CHEMBL3596165, “Synthesis, structure elucidation and identification of antiproliferative activities of a novel class of thiophene bioisosteres bearing the privileged 7,8-dihydroimidazo[2,1-c][1,2,4]triazin-4(6H)-one scaffold” (Bioorg Med Chem, 2015).

Format in all cases: functional
Holding throughout (details): read-out: GI

The subject of assay [1] is HeLa. Briefly: Antiproliferative activity against human HeLa cells at 50 ug/ml after 72 hrs by BrdUrd incorporation assay.
Assay [2] deals with HeLa. Briefly: Antiproliferative activity against human HeLa cells at 50 ug/ml after 48 hrs by BrdUrd incorporation assay.
Assay [3] relates to T47D. Briefly: Antiproliferative activity against human T47D cells at 50 ug/ml after 72 hrs by BrdUrd incorporation assay.
Assay [4] relates to T47D. Briefly: Antiproliferative activity against human T47D cells at 50 ug/ml after 24 hrs by BrdUrd incorporation assay.
For assay [5], the system named is HeLa. Briefly: Antiproliferative activity against human HeLa cells at 50 ug/ml after 24 hrs by BrdUrd incorporation assay.
For assay [6], the system named is T47D. Briefly: Antiproliferative activity against human T47D cells at 50 ug/ml after 48 hrs by BrdUrd incorporation assay.

Consider `O=c1c(-c2ccco2)nnc2n1CCN2c1cccc(Cl)c1`, for which the inhibition of growth at 50 µg/mL in assay [1] turned out to be 95%; in assay [2], 80%; in assay [3], 80%; in assay [4], 20%; in assay [5], 80%; in assay [6] it was 50%.

Take `Cc1cccc(N2CCn3c2nnc(-c2ccco2)c3=O)c1C`: the inhibition of growth at 50 µg/mL in assay [1] is 90%; in assay [2], 75%; in assay [3], 25%; in assay [4], 0%; in assay [5] it was 60%; in assay [6], 15%.

On to `O=c1c(-c2ccco2)nnc2n1CCN2c1ccccc1`, for which the inhibition of growth at 50 µg/mL in assay [1] was 100%; in assay [2], 75%; in assay [3] it was 95%; in assay [4], 50%; in assay [5], 50%; in assay [6] it was 85%.

For the molecule `O=c1c(-c2ccco2)nnc2n1CCN2c1ccc(Cl)cc1`, the inhibition of growth at 50 µg/mL was 90% in assay [1]; 75% in assay [2]; 15% in assay [3]; 0% in assay [4]; 50% in assay [5]; 15% in assay [6].

For `Cc1ccc(N2CCn3c2nnc(-c2ccco2)c3=O)cc1`, the inhibition of growth at 50 µg/mL was 80% in assay [1]; 50% in assay [2]; 80% in assay [3]; 40% in assay [4]; 50% in assay [5]; 60% in assay [6].

Consider `O=c1c(-c2ccco2)nnc2n1CCN2c1ccc(Cl)c(Cl)c1`, for which the inhibition of growth at 50 µg/mL in assay [1] is 95%; in assay [2], 50%; in assay [3], 40%; in assay [4], 10%; in assay [5] it was 50%; in assay [6] it was 20%.
